Legend:
Format in all cases: physicochemical
[1] = Heat resistance of PMMA film sample (colorant residual rate); details: 5% by weight in PMMA film on PET; 80° C. for 400 hours; absorbance at maximum absorption wavelength after vs before
Procedure: (§1) 2.5 g of PMMA and 0.125 g of the triarylamine derivative were dissolved in 25 ml of dichloromethane, and the solution was coated on a 100 μm-thick PET film. This was dried at 80° C. for 2 hours under reduced pressure to prepare a sample for assessment having a thickness of from 2 to 3 μm. The sample for assessment contained the triarylamine derivative at 5% by weight based on PMMA.
The sample for assessment obtained above was heat-treated at 80° C. for 400 hours. The absorbance of the assessment sample at the maximum absorption wavelength of the triarylamine derivative (colorant) was measured, and a colorant residual rate (%) was obtained as a ratio of the absorbance after heat treatment relative to the absorbance before heat treatment.

[2] = Wet heat resistance of PMMA film sample (colorant residual rate); details: 5% by weight in PMMA film on PET; 60° C. and relative humidity of 90% for 200 hours; absorbance after vs before
Procedure: as §1
The sample for assessment obtained above was subjected to wet heat treatment at 60° C. and a relative humidity of 90% for 200 hours. The absorbance of the assessment sample at the maximum absorption wavelength of the triarylamine derivative (colorant) was measured, and a colorant residual rate (%) was obtained as a ratio of the absorbance after wet heat treatment relative to the absorbance before wet heat treatment.

[3] = Light resistance of PMMA film sample (colorant residual rate); details: 5% by weight in PMMA film on PET; xenon lamp 170,000 lux, UV cut filter, 170 hours; absorbance after vs before
Procedure: as §1
The sample for assessment obtained above was irradiation-treated for 170 hours with a xenon lamp (170,000 lux, using an UV cut filter). The absorbance of the assessment sample at the maximum absorption wavelength of the triarylamine derivative (colorant) was measured, and a colorant residual rate (%) was obtained as a ratio of the absorbance after irradiation treatment relative to the absorbance before irradiation treatment.

[4] = Solubility in 2-butanone (MEK)
Procedure: Solubility (w/v %) of the triarylamine derivative in 2-butanone (MEK) was measured.

Row | Heat Resistance (colorant residual rate) [1] | Wet Heat Resistance (colorant residual rate) [2] | Light Resistance (colorant residual rate) [3] | Solubility (w/v) [4] | SMILES
1 | 80% | 45% | 98% | 16% w/v % | CCCCN(CCCC)c1ccc([N+](=C2C=CC(=[N+](CCCC)CCCC)CC2)c2ccc(N(CCCC)CCCC)cc2)cc1 [drawing 14]
2 | 0% | 19% | 80% | 15% w/v % | CCCCN(CCCC)c1ccc([N+](=C2C=CC(=[N+](CCCC)CCCC)CC2)c2ccc(N(CCCC)CCCC)cc2)cc1 [drawing 15]

— patent US20100249461A1, “TRIARYLAMINE DERIVATIVE” (priority 2007, published 2010)
